Results reported in PubChem BioAssay (NCI).
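Cultured in 96-well plates, cells were exposed to test compound for 48 hours across five concentrations. The concentration for 50% growth inhibition is given as GI50. TGI: concentration producing complete growth inhibition.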

Experiments:
Assay in all cases: NCI-60 cell line screen, 48 h
ACHN renal = tested on: ACHN renal
HCT-15 colon = tested on: HCT-15 colon
IGROV1 ovarian = tested on: IGROV1 ovarian
K-562 leukemia = tested on: K-562 leukemia
M14 melanoma = tested on: M14 melanoma
MALME-3M melanoma = tested on: MALME-3M melanoma
OVCAR-3 ovarian = tested on: OVCAR-3 ovarian
RXF 393 renal = tested on: RXF 393 renal
SK-MEL-28 melanoma = tested on: SK-MEL-28 melanoma
MDA-MB-231 breast = tested on: MDA-MB-231 breast

Row | SMILES | TGI (ACHN renal) [µM] | TGI (HCT-15 colon) [µM] | TGI (IGROV1 ovarian) [µM] | TGI (K-562 leukemia) [µM] | TGI (M14 melanoma) [µM] | TGI (MALME-3M melanoma) [µM] | TGI (OVCAR-3 ovarian) [µM] | TGI (RXF 393 renal) [µM] | TGI (SK-MEL-28 melanoma) [µM] | GI50 (ACHN renal) [µM] | GI50 (IGROV1 ovarian) [µM] | GI50 (K-562 leukemia) [µM] | GI50 (MDA-MB-231 breast) [µM] | TGI (MDA-MB-231 breast) [µM] | GI50 (OVCAR-3 ovarian) [µM] | GI50 (SK-MEL-28 melanoma) [µM] | GI50 (HCT-15 colon) [µM] | GI50 (MALME-3M melanoma) [µM] | GI50 (M14 melanoma) [µM] | GI50 (RXF 393 renal) [µM]
1 | CC(C)(C)OC(=O)NC(Cc1ccccc1)C(=S)N1CCCC1 (stereo unspecified) | > 100 | > 100 | > 100 | > 100 | > 100 | > 100 | > 100 | > 100 | > 100 | – | – | – | – | – | – | – | – | – | – | –
2 | C=CCN=C1NC(=O)C(CC(=O)Nc2cccc(Cl)c2)S1 (stereo unspecified) | > 100 | > 100 | > 100 | > 100 | > 100 | > 100 | > 100 | > 100 | > 100 | – | – | – | – | – | – | – | – | – | – | –
3 | C/C(=N\NC(=O)c1ccccc1O)c1c(O)cc(C)oc1=O | > 100 | > 100 | > 100 | > 100 | > 100 | > 100 | > 100 | > 100 | > 100 | – | – | – | – | – | – | – | – | – | – | –
4 | O=C(NC1CCCCC1)NC12CC3CC(CC(F)(C3)C1)C2 | > 100 | – | > 100 | > 100 | > 100 | > 100 | > 100 | > 100 | > 100 | – | – | – | – | – | – | – | – | – | – | –
5 | C=CCC1(CN(C)C)CC/C(=C\c2cc(OC)c(OC)c(OC)c2)C1=O (stereo unspecified) | 70.8 | 35.2 | 74.6 | 54.1 | 38.4 | > 100 | 69.2 | 37.3 | > 100 | – | – | – | – | – | – | – | – | – | – | –
6 | Cc1cc2[nH]c(=O)c3c4ncccc4cn3c2cc1C | > 100 | – | > 100 | > 100 | – | – | 4.33 | – | > 100 | 2.44 | 2.75 | 2.54 | 4.64 | > 100 | 2.02 | 4.7 | – | – | – | –
7 | OCC#Cc1ccccc1C#Cc1ccc(C#Cc2ccccc2C#CCO)cc1 | > 100 | > 100 | > 100 | > 100 | – | > 100 | 56.6 | – | > 100 | 36.2 | 30.4 | 34 | 25.5 | 58.1 | 20 | > 100 | > 100 | 98.9 | – | –
8 | CCCC(=O)Oc1ccc(/C=N/NC(N)=S)nc1 | > 100 | > 100 | > 100 | > 100 | > 100 | > 100 | > 100 | > 100 | > 100 | – | – | – | – | – | – | – | – | – | – | –
9 | C=C(C)[C@@H]1C/C=C(/COC(C)=O)CC[C@H]2O[C@@]2(C)CC/C=C(\C)CC1 | > 100 | > 100 | > 100 | 45.1 | > 100 | > 100 | > 100 | > 100 | > 100 | > 100 | > 100 | 21.4 | – | – | > 100 | > 100 | > 100 | > 100 | > 100 | 33.6
10 | COc1ccc(C2=NN(C(C)=O)c3nc4ccccc4nc3O2)cc1 | > 100 | > 100 | 27.4 | > 100 | – | > 100 | > 100 | – | > 100 | – | – | – | – | – | – | – | – | – | – | –
